Data published in US5491166A, “Inhibitors of HIV protease useful for the treatment of AIDS” (Eli Lilly and Company, priority 1992, dated 1996).

What follows are compounds tested against T1, HIV-1 protease (Human immunodeficiency virus type 1 group M subtype B, UniProt P04585) (assay: biochemical). Settings: All values normalized to a positive control; 1 h pre-incubation, 16 h with substrate at room temperature; *concentration of the compound was not increased above the reported concentration.
T1 construct: Purified HIV-1 protease was obtained as described above; made in house; host or cells: E. coli K12 L507/pHP10D
Procedure: A culture of E. coli K12 L507/pHP10D was grown to mid-log phase at 32° C. in LB media containing 12.5 μg/ml tetracycline. The cultivation temperature was quickly elevated to 40° C. to induce gene expression, and the cells were allowed to grow for 2.5 hours at this temperature before the culture was quickly chilled on ice. The cells were centrifuged and the cell pellet was resuspended in 20 mL 50 mmol MES buffer (pH 6.0) containing 1 mmol EDTA, 1 mmol DTT, 1 mmol PMSF and 10% glycerol ("Buffer A"). Cells were lysed by sonication using a Fischer Model 300 Dismembrator and a microtip probe. Following centrifugation at 27,000×g, the supernatant was diluted to a total volume of 60 mL with Buffer A and loaded onto a 2.0×19 cm QAE-Sepharose column (1 mL/min, 4° C.), that had been equilibrated in Buffer A. The column was washed isocratically for 180 min and then eluted with a gradient eluent of 0-1.0M sodium chloride in Buffer A over 120 min. Enzymatic activity was measured by HPLC using the synthetic peptide SQNYPIV as described in Margolin et al., Biochem, Biophys. Res. Commun., 167, 554-560 (1990); the production of the p1 peptide (SQNY) was measured.
The active fractions were combined, made 1.2M in ammonium sulfate, and applied to a 2.0×18 cm hexyl agarose column that had been equilibrated in Buffer A containing 1.2M ammonium sulfate. The sample was loaded at a flow rate of 1 mL/min at 4° C., washed with the equilibration buffer for 240 min (1 mL/min) and then eluted using a reverse linear gradient of 1.2-0M ammonium sulfate in Buffer A for 120 min at the same flow rate. The column was then washed isocratically in Buffer A for 120 min.
The active fractions were combined, concentrated to 10 mL using an Amicon stirred cell with a YM-10 membrane and then applied to a MonoS cation exchange column (1.0×10 cm) that had been equilibrated in Buffer A. The sample was loaded at a flow rate of 1 mL/min at 25° C. After washing isocratically for 30 min, the protease was eluted using a linear gradient of 0-0.45M sodium chloride in Buffer A over 40 min.. The column was washed isocratically in Buffer A containing 0.45M sodium chloride for 30 min.
The active fractions were combined and concentrated to 200 μL using an Amicon stirred cell and a YM-10 membrane and then the protease was applied to a Superose 6 size exclusion column equilibrated in Buffer A containing 0.1M sodium chloride.
The purified peptide was labeled with a fluorescent marker at the C-terminal end for use in the Pandex assay. N^α -Biotin-[…]OH (1.206 g, 0.936 mmol) was dissolved in 100 mL of 0.1M sodium borate, pH 9.5. Then, a solution of 3 g (7.7 mmol) of fluorescein isothiocyanate in 15 mL dimethyl sulfoxide was added to the reaction mixture in 10 equal portions over two hours. The resulting mixture was allowed to react for one hour after the final addition. The solution was adjusted to pH 3 using 5N HCl, resulting in the formation of a precipitate which was removed by centrifugation.
The following buffers and solutions are used in the Fluorescence HIV-1 Protease Inhibitor Assay:
0.05M 4-morpholineethane sulfonic acid, pH 5.5
0.1% solution of Fluoricon Avidin Assay Particles (Avidin conjugated to solid polystyrene beads, 0.6-0.8 microns in diameter in TBSA Buffer
27 IU/mL of purified HIV-1 protease in MES-ALB buffer (1 IU equals the amount of enzyme required to hydrolyze 1 μmole of substrate per minute at 37° C.
To each well of a round bottom, 96-well plate is added 20 μL of the Enzyme Solution followed by 10 μL of the compound to be evaluated in a 20% aqueous dimethylsulfoxide solution. Purified HIV-1 protease was obtained as described above.

Compound	Fluorescence Assay IC50 [µg/mL]
[2R-(2R*, 3S*, 6S*)]-N-t-Butyl-2-[2-hydroxy-3-phenylmethyl-4,7-diaza-5,8-dioxo-6-cyanomethyl-9-N(methyl)aza-10-quinolin-2-yl]decyl benzamide [Example 4]	0.0012
CC(C)(C)NC(=O)c1ccccc1C[C@@H](O)[C@H](Cc1ccccc1)NC(=O)[C@@H](CC(=O)OCc1ccccc1)NC(=O)OCc1ccccc1 (relative stereo) [Example 9, [2R-(2R *, 3S*, 6R*)]-N-t-Butyl-2-[2-hydroxy-3-phenylmethyl-4-aza-5-oxo-6-N(benzyloxycarbonyl)amino-7-benzyloxycarbonyl]heptyl benzamide]	> 1

Same assay, conditions: read-out: Fluorescence Assay IC8

Compound	IC8 [µg/mL]
CC(C)(C)NC(=O)c1ccccc1C[C@@H](O)[C@H](Cc1ccccc1)NC(=O)[C@@H](CC(=O)OCc1ccccc1)NC(=O)OC(C)(C)C [Example 11, [2R-(2R *, 3S*, 6S*)]-N-t-butyl-2-[2-hydroxy-3-phenylmethyl-4-aza-5-oxo-6-N(t-butoxycarbonyl)amino-7-benzyloxycarbonyl]heptyl benzamide]	1

Same assay, conditions: read-out: Fluorescence Assay IC50 (converted)

Compound	IC50 [nM]
CC(C)(C)NC(=O)c1ccccc1C[C@@H](O)[C@H](Cc1ccccc1)NC(=O)[C@@H](CC(=O)OCc1ccccc1)NC(=O)c1ccc2ccccc2n1 [Example 8, [2R-(2R*,3S*,6R*)]-N-t-Butyl-2-[2-hydroxy-3-phenylmethyl-4-aza-5-oxo-6-N(quinolin-2-ylcarbonyl)amino-7-benzyloxycarbonyl]heptyl benzamide]	> 1430
CC(C)(C)NC(=O)c1ccccc1C[C@@H](O)[C@H](Cc1ccccc1)NC(=O)[C@H](CC#N)NC(=O)NCc1cccc2ccccc12 (relative stereo) [Example 1, [2R-(2R*, 3S*, 6S*)]-N-t-Butyl-2-[2-hydroxy-3-phenylmethyl-4,7,9-triaza-5,8-dioxo-6-cyanomethyl-10-naphth-1-yl]decyl benzamide]	0.645
CC(C)(C)NC(=O)c1ccccc1C[C@@H](O)[C@H](Cc1ccccc1)NC(=O)[C@H](CC(=O)OCc1ccccc1)NC(=O)c1ccc2ccccc2n1 [Example 7, [2R-(2R*,3S*,6S*)]-N-t-Butyl-2-[2-hydroxy-3-phenylmethyl-4-aza-5-oxo-6-N(quinolin-2-ylcarbonyl)amino-7-benzyloxycarbony]heptyl benzamide]	0.856
CN1Cc2ccccc2CC1C(=O)N[C@@H](CC#N)C(=O)N[C@@H](Cc1ccccc1)[C@H](O)Cc1ccccc1C(=O)NC(C)(C)C (relative stereo) [Example 3, R-(2R *, 3S*, 6S*)-N-t-Butyl-2-[2-hydroxy-3-phenylmethyl-4,7-diaza-5,8-dioxo-6-cyanomethyl-8-(2-methyl-1,2,3,4-tetrahydroisoquinolin-3-yl]octylbenzamide]	89.5
CC(C)(C)NC(=O)c1ccccc1C[C@@H](O)[C@H](Cc1ccccc1)NC(=O)[C@H](CC(=O)OCc1ccccc1)NC(=O)OCc1ccccc1 [Example 6, [2R-(2R*, 3S*, 6S*)]-N-t-Butyl-2-[2-hydroxy-3-phenylmethyl-4-aza-5-oxo-6-N(benzyloxycarbonyl)amino-7-benzyloxycarbonyl]heptyl benzamide]	10.6
CC(C)(C)NC(=O)c1ccccc1C[C@@H](O)[C@H](Cc1ccccc1)NC(=O)[C@H](CC#N)NC(=O)c1ccc2ccccc2n1 [Example 2, [2R-(2R *, 3S*, 6S*)]-N-t-Butyl-2-[2-hydroxy-3-phenylmethyl-4,7-diaza-5,8-dioxo-6-cyanomethyl-8-quinolin-2-yl]octyl benzamide]	1.86
CC(C)(C)NC(=O)c1ccccc1C[C@@H](O)[C@H](Cc1ccccc1)NC(=O)[C@H](CC(=O)OCc1ccccn1)NC(=O)c1ccc2ccccc2n1 [Example 10, [2R-(2R*,3S*,6S*)]-N-t-Butyl-2-[2-hydroxy-3-phenylmethyl-4-aza-5-oxo-6-N(quinolin-2-ylcarbonyl)amino-7-(pyrid-2-ylmethoxycarbonyl)]heptyl benzamide]	1.85

Results, then the compound that gave them:

IC50 [nM]	Compound
1.12	CC(C)(C)NC(=O)c1ccccc1C[C@@H](O)[C@H](Cc1ccccc1)NC(=O)[C@H](CC(=O)NN)NC(=O)c1ccc2ccccc2n1 [Example 13, [2R-(2R*, 3S*, 6S*)]-N-t-Butyl-2-[2-hydroxy-3-phenylmethyl-4-aza-5,8-dioxo-6-N(quinolin-2-ylcarbonyl)amino-8-hydrazino]octyl benzamide]
2.79	CN(C)CCNC(=O)C[C@H](NC(=O)c1ccc2ccccc2n1)C(=O)N[C@@H](Cc1ccccc1)[C@H](O)Cc1ccccc1C(=O)NC(C)(C)C (relative stereo) [Example 15, [2R -(2R*,3S*,6S*)]-N-t-Butyl-2-[2-hydroxy-3-phenylmethyl-4-aza-5,8-dioxo-6-N(quinolin-2-ylcarbonyl)amino-8-N(2-(N, N-dimethylamino)ethyl)amino]octyl benzamide]
0.782	CONC(=O)C[C@H](NC(=O)c1ccc2ccccc2n1)C(=O)N[C@@H](Cc1ccccc1)[C@H](O)Cc1ccccc1C(=O)NC(C)(C)C [Example 12, [2R-(2R*, 3S*, 6S*)]-N-t-Butyl-2-[2-hydroxy-3-phenylmethyl-4-aza-5-oxo-6-N(quinolin-2-ylcarbonyl)amino-8-N(methoxy)carbamoyl]heptyl benzamide]
4.18	CC(C)(C)NC(=O)c1ccccc1C[C@@H](O)[C@H](Cc1ccccc1)NC(=O)[C@H](CS(N)(=O)=O)NC(=O)c1ccc2ccccc2n1 [Example 14, [2R-(2R*,3S*,6R*)]-N-t-Butyl-2-[2-hydroxy-3-phenylmethyl-4-aza-5-oxo-6-N(quinolin-2-ylcarbonyl)amino-7-aminosulfonyl]heptyl benzamide]
